The NIST ThermoML archive (doi:10.1016/j.fluid.2006.01.022)

Columns and labels:
[1] = 101.33 kPa, Liquid, Alternating current cell with electrodes
[2] = xn = mol fraction of the nth substance listed; conditions: Liquid, Alternating current cell with electrodes

CCOS(=O)(=O)[O-].CCn1cc[n+](C)c1 [1-ethyl-3-methylimidazolium ethyl sulfate]
[1]
Conditions	electrical conductivity [S/m]
258.1 K	0.0286
263.1 K	0.0374
268.1 K	0.0495
273.1 K	0.0727
278.1 K	0.105
283.1 K	0.139
288.1 K	0.202
293.1 K	0.291
298.1 K	0.382
303.1 K	0.485
308.1 K	0.606
313.1 K	0.724
318.1 K	0.861
323.1 K	1.01
328.1 K	1.18
333.1 K	1.35
338.1 K	1.54
343.1 K	1.75
348.1 K	1.95
353.1 K	2.18
358.1 K	2.41
363.1 K	2.68
368.1 K	3
373.1 K	3.29
378.1 K	3.57
383.1 K	3.86
388.1 K	4.15
393.1 K	4.47
398.1 K	4.77
403.1 K	5.09
408.1 K	5.39
413.1 K	5.68
418.1 K	6
423.1 K	6.29
428.1 K	6.58
433.1 K	6.86

CCn1cc[n+](C)c1.F[B-](F)(F)F [1-ethyl-3-methylimidazolium tetrafluoroborate]
[1]
Conditions	electrical conductivity [S/m]
258.1 K	0.245
263.1 K	0.296
268.1 K	0.445
273.1 K	0.612
278.1 K	0.735
283.1 K	0.896
288.1 K	1.09
293.1 K	1.3
298.1 K	1.57
303.1 K	1.79
308.1 K	2.02
313.1 K	2.28
318.1 K	2.55
323.1 K	2.85
328.1 K	3.22
333.1 K	3.56
338.1 K	3.95
343.1 K	4.35
348.1 K	4.77
353.1 K	5.22
358.1 K	5.55
363.1 K	5.95
368.1 K	6.46
373.1 K	6.9
378.1 K	7.36
383.1 K	7.83
388.1 K	8.32
393.1 K	8.77
398.1 K	9.29
403.1 K	9.79
408.1 K	10.3
413.1 K	10.8
418.1 K	11.3
423.1 K	11.8
428.1 K	12.3
433.1 K	12.7

[Br][Al]([Br])[Br] [aluminum bromide] + CCn1cc[n+](C)c1.[Br-]
electrical conductivity [S/m], [2]
Conditions	x1 = 0.3	x1 = 0.6
258.1 K	0.048	0.0432
263.1 K	0.0898	0.0717
268.1 K	0.122	0.113
273.1 K	0.22	0.16
278.1 K	0.284	0.226
283.1 K	0.454	0.338
288.1 K	0.599	0.447
293.1 K	0.784	0.645
298.1 K	0.979	0.877
303.1 K	1.21	1.14
308.1 K	1.49	1.42
313.1 K	1.82	1.75
318.1 K	2.14	2.11
323.1 K	2.54	2.56
328.1 K	3.05	3.04
333.1 K	3.5	3.62
338.1 K	4.05	4.22
343.1 K	4.6	4.87
348.1 K	5.14	5.56
353.1 K	5.79	6.35
358.1 K	6.95	7.16
363.1 K	7.62	7.79
368.1 K	8.28	8.57
373.1 K	8.95	9.46
378.1 K	9.7	10.4
383.1 K	10.6	11.4
388.1 K	11.4	12.3
393.1 K	12	12.8
398.1 K	–	13.7
403.1 K	–	14.5
408.1 K	–	15.3
413.1 K	–	15.8
418.1 K	–	16.5

[Cl][Al]([Cl])[Cl] [aluminum chloride] + CCn1cc[n+](C)c1.[Cl-]
electrical conductivity [S/m], [2]
Conditions	x1 = 0.33	x1 = 0.6
253.1 K	0.0315	0.0377
258.1 K	0.0515	0.0517
263.1 K	0.0855	0.1
268.1 K	0.127	0.143
273.1 K	0.195	0.206
278.1 K	0.3	0.283
283.1 K	0.39	0.385
288.1 K	0.53	0.515
293.1 K	0.705	0.669
298.1 K	0.907	0.861
303.1 K	1.11	1.08
308.1 K	1.37	1.32
313.1 K	1.67	1.6
318.1 K	2.02	1.91
323.1 K	2.4	2.26
328.1 K	2.81	2.64
333.1 K	3.29	3.11
338.1 K	3.8	3.56
343.1 K	4.34	4.02
348.1 K	4.9	4.56
353.1 K	5.68	5.08
358.1 K	6.27	5.63
363.1 K	7.13	6.17
368.1 K	7.95	7.28
373.1 K	8.5	8.09
378.1 K	9.11	9.1
383.1 K	9.97	9.72
388.1 K	10.9	10.1
393.1 K	11.8	10.4
398.1 K	12.3	–
403.1 K	12.7	–
